Data on 14 molecules can be found in US20260199273A1, “Compounds for the Treatment of Neuromuscular Disorders” (NMD PHARMA A/S, priority 2022, published 2026).

In experiment [1] the test system is isolated rat soleus nerve-muscle preparations. The experiment in a line: Measurement of force in an in vitro model: recovery of nerve-stimulated contractile force after tubocurarine. The note with it: 40 min, after 40 mins of compound exposure, tubocurarine (115 nM) for 90 minutes, read-out: Point increase (%): percentage increase of initial force that was restored; for activation at 10 µM: 10 μM of test compound. The method in brief: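 Isolated soleus nerve-muscle preparations from 4-5 week old rats, nerve-stimulated in Krebs Ringer at 30° C, 95% O2/5% CO2, pH ~7.4. Force reduced with 115 nM tubocurarine for 90 min, then compound added. Value is percentage-point increase in initial force restored after 40 min compound exposure.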

For experiment [2], the target named is T1, CIC-1 ion channel (Rattus norvegicus, UniProt P35524).
T1 construct: from tissue; host or cells: whole soleus muscle of 12-14 week old Wistar rats
T1 sequence (P35524 1-994): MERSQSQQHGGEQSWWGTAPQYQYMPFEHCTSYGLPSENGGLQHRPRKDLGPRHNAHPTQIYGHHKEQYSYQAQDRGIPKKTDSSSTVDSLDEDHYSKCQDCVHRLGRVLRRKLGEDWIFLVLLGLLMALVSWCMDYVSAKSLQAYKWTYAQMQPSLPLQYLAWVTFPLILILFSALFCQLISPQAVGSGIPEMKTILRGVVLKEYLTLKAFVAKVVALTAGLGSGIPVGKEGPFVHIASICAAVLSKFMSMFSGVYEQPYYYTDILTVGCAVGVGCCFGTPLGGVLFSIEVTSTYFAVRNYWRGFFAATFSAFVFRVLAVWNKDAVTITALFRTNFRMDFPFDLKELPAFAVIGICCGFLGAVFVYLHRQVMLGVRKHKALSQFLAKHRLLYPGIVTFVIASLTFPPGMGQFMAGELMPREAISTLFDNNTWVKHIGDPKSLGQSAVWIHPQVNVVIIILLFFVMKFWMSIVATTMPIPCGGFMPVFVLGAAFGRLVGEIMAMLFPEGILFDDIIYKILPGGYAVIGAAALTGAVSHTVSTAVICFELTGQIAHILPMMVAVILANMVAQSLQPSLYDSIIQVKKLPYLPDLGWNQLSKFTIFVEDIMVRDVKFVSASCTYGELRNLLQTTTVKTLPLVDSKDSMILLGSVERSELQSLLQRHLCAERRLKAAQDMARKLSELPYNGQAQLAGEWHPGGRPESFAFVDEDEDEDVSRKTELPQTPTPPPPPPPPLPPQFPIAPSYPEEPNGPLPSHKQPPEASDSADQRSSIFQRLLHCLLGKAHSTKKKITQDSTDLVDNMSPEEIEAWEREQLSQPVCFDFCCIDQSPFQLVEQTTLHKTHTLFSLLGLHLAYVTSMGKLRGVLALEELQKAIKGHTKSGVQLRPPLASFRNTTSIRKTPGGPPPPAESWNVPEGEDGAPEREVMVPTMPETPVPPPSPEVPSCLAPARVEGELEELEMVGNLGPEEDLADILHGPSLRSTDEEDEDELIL
As to the kind of experiment: Electrophysiological measurement of compound inhibition of CIC-1 in rat muscle (Gm in soleus fibres, three micro-electrodes). Particulars: Gm in individual fibres of whole rat soleus muscles, approx. 30° C., four increasing compound concentrations; read-out: Potency Range (EC50, inhibition of CIC-1 ion channel). The experiment is classed as cell-based. The method in brief:
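Membrane conductance (Gm) recorded by three micro-electrodes in soleus fibres of intact muscles from 12-14 week old Wistar rats, Krebs Ringer, ~30° C, pH ~7.4; 50 ms −30 nA pulses, Gm from cable-theory fit. Control Gm in 10 fibres, then four rising concentrations (5-10 fibres each); EC50 by sigmoidal fit.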

As for `Cc1c(F)cc2c(c1C(=O)O)CCCC2` [Compound A-52, 3-Fluoro-2-methyl-5,6,7,8-tetrahydronaphthalene-1-carboxylic acid], in experiment [1], the activation at 10 µM was 18%. Besides, in experiment [2], the EC50 lay within 2000 to 10000 nM.

Consider `CC1(C)CCc2cc(Cl)cc(C(=O)O)c2O1` [Compound A-53, 6-Chloro-2,2-dimethyl-3,4-dihydro-2H-1-benzopyran-8-carboxylic acid], for which the activation at 10 µM in experiment [1] is 43%. The 50% effective concentration (EC50) in experiment [2] lay in the range of 200 to 2000 nM.

On to `O=C(O)c1c(F)c(C2CC2)cc2c1CCCC2` [Compound A-54, 3-Cyclopropyl-2-fluoro-5,6,7,8-tetrahydronaphthalene-1-carboxylic acid], for which the activation at 50 µM in experiment [1] (50 μM of test compound) worked out at 47%. Further, the EC50 in experiment [2] is 10000 to 20000 nM.

For the molecule `O=C(O)c1c(Cl)c(F)cc2c1OCCCC2` [Compound A-56, 8-chloro-7-fluoro-2,3,4,5-tetrahydro-1-benzoxepine-9-carboxylic acid], in experiment [1], the activation at 10 µM was found to be 31%. Besides, the EC50 in experiment [2] lay within 2000 to 10000 nM.

With `COc1c(Cl)cc2c(c1C(=O)O)C(F)(F)CCC2` [Compound A-59, 3-chloro-8,8-difluoro-2-methoxy-5,6,7,8-tetrahydronaphthalene-1-carboxylic acid], the activation at 10 µM in experiment [1] turned out to be 53%. In addition, the EC50 in experiment [2] fell in the range of 2000 to 10000 nM.

For `CC1(C)CCc2cc(Cl)c(F)c(C(=O)O)c2O1` [Compound A-61, 6-Chloro-7-fluoro-2,2-dimethyl-3,4-dihydro-2H-1-benzopyran-8-carboxylic acid], the activation at 10 µM in experiment [1] is 63%. For the same molecule, in experiment [2], the EC50 fell in the range of 200 to 2000 nM.

`O=C(O)c1c(F)c(Cl)cc2c1CCC2` [Compound A-63, 6-Chloro-5-fluoro-2,3-dihydro-1H-indene-4-carboxylic acid]: the activation at 10 µM in experiment [1] worked out at 28%. Moreover, the EC50 in experiment [2] lay in the range of 2000 to 10000 nM.

Regarding `O=C(O)c1c(F)c(Cl)cc2c1CCCS2` [Compound A-65, 7-chloro-6-fluoro-3,4-dihydro-2H-1-benzothiopyran-5-carboxylic acid], the activation at 10 µM in experiment [1] was determined as 49%. Moreover, the EC50 in experiment [2] is 200 to 2000 nM.

Regarding `COc1c(Cl)cc2c(c1C(=O)O)OCCC2` [Compound A-69, 6-Chloro-7-methoxy-3,4-dihydro-2H-1-benzopyran-8-carboxylic acid], the activation at 10 µM in experiment [1] was found to be 55%. In experiment [2], the EC50 fell in the range of 200 to 2000 nM.

With `O=C(O)c1c(F)c(Cl)cc2c1N(Cc1ccsc1)CCC2` [Compound A-70, 6-Chloro-7-fluoro-1-[(3-thienyl)methyl]-1,2,3,4-tetrahydro-8-quinolinecarboxylic acid], in experiment [1], the activation at 10 µM is 25%. In experiment [2], the EC50 was in the range of 200 to 2000 nM.

On to `O=C(O)c1c(F)c(Cl)cc2c1N(Cc1ccccc1)CCC2` [Compound A-71, 1-Benzyl-6-chloro-7-fluoro-1,2,3,4-tetrahydro-8-quinolinecarboxylic acid], for which the activation at 10 µM in experiment [1] was 23%. In addition, the EC50 in experiment [2] was in the range of 200 to 2000 nM.

On to `O=C(O)c1c(F)c(Cl)cc2c1N(Cc1ccc(F)cc1)CCC2` [Compound A-72, 6-Chloro-7-fluoro-1-[(p-fluorophenyl)methyl]-1,2,3,4-tetrahydro-8-quinolinecarboxylic acid], for which the activation at 10 µM in experiment [1] is 20%. Also, the EC50 in experiment [2] is 200 to 2000 nM.

Regarding `COc1c(Cl)cc2c(c1C(=O)O)CCCC2(F)F` [Compound A-73, 3-Chloro-5,5-difluoro-2-methoxy-5,6,7,8-tetrahydro-1-naphthoic acid], the activation at 10 µM in experiment [1] was determined as 23%. Moreover, in experiment [2], the EC50 lay within 200 to 2000 nM.

Turning to `O=C(O)c1c(Cl)c(F)cc2c1N(Cc1ccccc1)CCC2` [Compound A-74, 1-Benzyl-7-chloro-6-fluoro-1,2,3,4-tetrahydro-8-quinolinecarboxylic acid], in experiment [1], the activation at 10 µM is 11%. In experiment [2], the half-maximal effective concentration (EC50) was 200 to 2000 nM.

In general, EC50 refers to the concentration that produces a half-maximal response.
